Assay results from patent US9371335B2, “Spirothienopyran-piperidine derivatives as ORL-1 receptor antagonists for their use in the treatment of alcohol dependence and abuse” (Eli Lilly and Company, priority 2011, dated 2016).

Experiments:
Type in all cases: in vivo, rat
P rats = experiment: Free-choice ethanol self-administration in P rats; conditions: for Mean EtOH Consumed in g/kg (Drug-treated) / Reduction vs. Vehicle (EtOH consumed): 12 hr; for ethanol self-administration: free-choice access, P rats and msP rats
Excerpt: Free-Choice Ethanol Self-Administration in Alcohol-Preferring Rats: P Rats:
In this procedure (modified from Rodd-Henricks Z A, McKinzie D L, Shaikh S R, Murphy J M, McBride W J, Lumeng L and Li T K (2000) Alcohol deprivation effect is prolonged in the alcohol preferring (P) rat after repeated deprivations. Alcohol Clin Exp Res 24:8-16), female P rats are obtained from a private colony (Taconic, Germantown, N.Y.), individually-housed with food, 15% ethanol (v/v, in water), and water available ad libitum, and maintained on a 12 hr. light/dark cycle (lights off at 16:00). The chambers are equipped with a force transduction system (TSE Systems, Bad Homburg, Germany) attached to the ethanol, water, and food receptacles to enable continuous monitoring of food and liquid consumption. Rats voluntarily consume 15% ethanol with a mean daily intake of roughly 5 g/kg for several months prior to drug testing. Rats are treated orally with vehicle or test compounds in the dose range of 3, 10, or 30 mg/kg (3 mL/kg dose volume, dissolved in a vehicle consisting of 20% Captisol® in 25 mM phosphate buffer at pH=2), or naltrexone (10 mg/kg, 1 mL/kg dose volume, dissolved in water) immediately prior to the onset of the dark cycle, using a within-subjects, crossover design (3-4 day washout between subsequent doses). In a separate experiment, rats receive oral administration of vehicle followed by 4 daily oral doses of vehicle or 30 mg/kg test compound immediately prior to the onset of the dark cycle, using a between-subjects design.

msP rats = experiment: Free-choice ethanol self-administration in msP rats; conditions: 24 hr
Description: In a separate study, male msP rats are obtained from a private colony (University of Camerino, Marche, Italy), individually-housed with food, 10% ethanol (v/v in water), and water available ad libitum, and maintained on a 12 hr. light/dark cycle. Ethanol and water are measured using graduated bottles to assess the volume of ethanol consumed (Economidou D, Fedeli A, Fardon R M, Weiss F, Massi M and Ciccocioppo R (2006) Effect of novel nociceptin/orphanin FQ-NOP receptor ligands on ethanol drinking in alcohol-preferring msP rats. Peptides 27:3299-3306.). Food intake is monitored by weighing the food receptacle. Once rats reach a stable baseline of voluntary ethanol consumption of 5-6 g/kg/day (approximately 4-5 months of age), rats are treated orally with test compounds in the dose range of 3 or 30 mg/kg in a formulation consisting of 1:1 distilled water: 1 M H3PO4 (1-5 mL/kg dose volume), one hour prior to onset of the dark cycle, using a within-subjects, crossover design (3-4 day washout between subsequent doses). Ethanol, water, and food are presented to the animals at the onset of the dark cycle, and consumption of food and fluids is measured at 2, 8, and 24 hr intervals.

[1] = system: Alcohol-Preferring (P) rats; experiment: Operant ethanol self-administration in P rats (progressive ratio schedule); conditions: for ethanol-motivated responding: P rats on progressive ratio schedule, result in words; for Reduction vs. Vehicle (lever presses) / Mean Number of Lever Presses (Drug-treated): female P rats; for Mean Number of Lever Presses (Drug-treated): 30-min progressive ratio session
Excerpt: Operant Self-Administration in P rats:
Female P rats are obtained and pair-housed from a private colony (Taconic, Germantown, N.Y.). In order to reduce novelty-induced avoidance of ethanol, the water bottle on the homecage is replaced with a bottle containing 15% ethanol in water (v/v, in water) for two days prior to operant training. Throughout the rest of the experiment, rats receive ad libitum access to water and standard laboratory chow, with no further access to ethanol in the homecage.
Rats are trained to press a lever for ethanol reinforcement in daily 30-min sessions conducted in standard rat operant chambers contained within sound-attenuating chambers (MED Associates, Inc., St. Albans, Vt.). The chambers consist of two stainless steel and two clear Plexiglas walls. The floor grid of the operant chambers consists of 0.5 cm diameter stainless steel bars placed approximately 1.5 cm apart. Each operant chamber contains two retractable operant levers located approximately 6 cm above the grid floor and 13 cm apart. A recessed trough is located in the space between the levers, through which a dipper cup (0.1 mL capacity) is raised to deliver response-contingent ethanol (15%, v/v, in water). Upon a reinforced response, a stimulus light is illuminated above the lever on which the response was made throughout the 4-sec dipper cup access. Operation of the stimuli and behavioral responses are controlled and recorded by personal computer for offline analysis (MED Associates, Inc., St. Albans, Vt.).
During operant training, responses on either lever are considered correct responses and are rewarded with 0.1 mL ethanol reinforcement. […] Once stable baseline responding is reached on an FR-1 schedule of reinforcement, the response contingency is increased to FR-2 and then again to FR-3 so that 3 lever presses are required for each reinforcement. […] Specifically, the response requirement is increased as follows: all rats begin each session at an FR-1 schedule of reinforcement; after three reinforcements, the schedule is increased to FR-2; after three reinforcements at that level, the schedule is increased by two to FR-4; after three reinforcements, the schedule is increased by two to FR-6; and so on (see for e.g. Oster S M, Toalston J E, Kuc K A, Pommer T J, Murphy J M, Lumeng L, Bell R L, McBride W J and Rodd Z A (2006) Effects of multiple alcohol deprivations on operant ethanol self-administration by high-alcohol-drinking replicate rat lines. Alcohol 38:155-164). Each session lasts a total of 30 min, after which, all stimuli are turned off and levers are retracted. […] The amount of ethanol consumed is calculated from the number of active lever presses, and converted into g/kg EtOH consumed. Rats receive oral administration of vehicle or test compound in the dose range of 3, 10, or 30 mg/kg (3 mL/kg dose volume, dissolved in a vehicle consisting of 20% Captisol® in 25 mM phosphate buffer at pH=2), or the nonselective opioid receptor antagonist naltrexone (10 mg/kg) as a positive control, 60 min. prior to the session, using a within-subjects, crossover design (3-4 day washout between subsequent doses). On a separate occasion, rats receive oral administration of vehicle or 30 mg/kg test compound (1 mL/kg dose volume, dissolved in a vehicle consisting of 20% Captisol® in 25 mM phosphate buffer), 30 min prior to the session, using a crossover design.

[2] = P rats, 30 mg/kg oral once daily, day 2
[3] = P rats, 30 mg/kg oral once daily, day 3
[4] = P rats, 30 mg/kg oral once daily, day 4
[5] = P rats, 30 mg/kg oral once daily, day 5

Row | Structure (SMILES) | Mean EtOH Consumed in g/kg (Drug-treated) (P rats; P rats, 10 mg/kg oral) [g/kg] | Reduction vs. Vehicle (EtOH consumed) (P rats; P rats, 10 mg/kg oral) [%] | Mean EtOH Consumed in g/kg (Drug-treated) (P rats; P rats, 30 mg/kg oral) [g/kg] | Reduction vs. Vehicle (EtOH consumed) (P rats; P rats, 30 mg/kg oral) [%] | ethanol self-administration (P rats; result in words) | Mean EtOH Consumed in g/kg (Drug-treated) (msP rats; 3 mg/kg oral) [g/kg] | Reduction vs. Vehicle (EtOH consumed) (msP rats; 3 mg/kg oral) [%] | Mean EtOH Consumed in g/kg (Drug-treated) (msP rats; 30 mg/kg oral) [g/kg] | Reduction vs. Vehicle (EtOH consumed) (msP rats; 30 mg/kg oral) [%] | ethanol-motivated responding [1] | Reduction vs. Vehicle (lever presses) ([1]; 30 mg/kg oral) [%] | Mean Number of Lever Presses (Drug-treated) ([1]; 30 mg/kg oral) | further results
1 | Cc1nn(-c2ncccc2CO)cc1CN1CCC2(CC1)OCC(F)(F)c1cc(Cl)sc12 [Compound 1, [2-[4-[(2-chloro-4,4-difluoro-spiro[5H-thieno[2,3-c]pyran-7,4′-piperidine]-1′-yl)methyl]-3-methyl-pyrazol-1-yl]-3-pyridyl]methanol] | 3.67 | 22.4 | 1.50 | 68.3 | significantly reduce ethanol self-administration | 6.7 | 8.2 | 4.4 | 39.7 | reduce ethanol-motivated responding | 55.8 | 191.25 | Mean EtOH Consumed in g/kg (Drug-treated) (P rats; P rats, 3 mg/kg oral): 3.54 g/kg; Reduction vs. Vehicle (EtOH consumed) (P rats; P rats, 3 mg/kg oral): 25.2%; Mean EtOH Consumed in g/kg (day 2) (P rats; [2]): 1.59 g/kg; Reduction vs. vehicle (EtOH consumed, day 2) (P rats; [2]): 63.6%; Mean EtOH Consumed in g/kg (day 3) (P rats; [3]): 2.02 g/kg; Reduction vs. vehicle (EtOH consumed, day 3) (P rats; [3]): 61.8%; Mean EtOH Consumed in g/kg (day 4) (P rats; [4]): 2.69 g/kg; Reduction vs. vehicle (EtOH consumed, day 4) (P rats; [4]): 45.0%; Mean EtOH Consumed in g/kg (day 5) (P rats; [5]): 2.50 g/kg; Reduction vs. vehicle (EtOH consumed, day 5) (P rats; [5]): 54.0%; suppression of ethanol intake on repeated dosing (P rats; P rats, 4 days of once daily dosing, result in words): maintain suppression of ethanol intake in P rats throughout 4 days of once daily dosing without tachyphylaxis; Reduction vs. Vehicle (lever presses) ([1]; 3 mg/kg oral): 4.6%; Mean Number of Lever Presses (Drug-treated) ([1]; 3 mg/kg oral): 412.58; Reduction vs. Vehicle (lever presses) ([1]; 10 mg/kg oral): 23.7%; Mean Number of Lever Presses (Drug-treated) ([1]; 10 mg/kg oral): 330
2 | Cc1nn(-c2ncccc2F)cc1CN1CCC2(CC1)OCC(F)(F)c1cc(Cl)sc12 [Compound 2, 2-Chloro-4,4-difluoro-1′-[[1-(3-fluoro-2-pyridyl)-3-methyl-pyrazol-4-yl]methyl]spiro[5H-thieno[2,3-c]pyran-7,4′-piperidine]] | 3.70 | 28.3 | 3.40 | 34.1 | significantly reduce ethanol self-administration | 5.6 | 20.0 | 5 | 28.6 | reduce ethanol-motivated responding | 61.9 | 143.31 | –
